Test systems include A549 NSCLC; HT29 colon; NCI-H460 lung; SNB-75 CNS; U251 CNS; UACC-257 melanoma; NCI-H226 lung; SNB-19 CNS; HCC-2998 colon.
What all share (experiment): growth of human tumour cells (NCI), 48 h

Each structure is given as a SMILES string.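 Test compounds were applied to cells in 96-well plates for 48 hours at 5 doses. At the GI50, growth is halved. The concentration for full growth arrest is given as TGI.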

Regarding `O=C(Nc1cc(Cl)ccc1Cl)c1cc2cccc(Cl)c2oc1=O`, the TGI in the assay with A549 NSCLC, in the assay with HT29 colon, with NCI-H460 lung, in the assay on SNB-75 CNS, in the assay on U251 CNS and with UACC-257 melanoma was greater than 100 µM each time.

On to `O=c1[nH]cc(COCCO)c(=O)[nH]1`, for which the TGI in the assay on A549 NSCLC, in the assay on HT29 colon, in the assay with NCI-H226 lung, with NCI-H460 lung, with SNB-19 CNS and with SNB-75 CNS was greater than 100 µM throughout. The TGI with U251 CNS and in the assay on UACC-257 melanoma was greater than 100 µM throughout.

For `O=C1[C@@H]2C3c4ccccc4C([C@@H]2C(=O)N1c1ccccc1)S3(=O)=O`, the TGI in the assay on HCC-2998 colon, in the assay with HT29 colon, in the assay with NCI-H226 lung, in the assay on NCI-H460 lung, in the assay with SNB-19 CNS and in the assay with SNB-75 CNS was greater than 100 µM each time. Besides, the TGI in the assay with U251 CNS and in the assay with UACC-257 melanoma was greater than 100 µM each time.

For the compound `O=C1c2ccccc2C2(O)c3cc4ccccc4cc3OC12O` (stereo not given), the TGI in the assay on A549 NSCLC, with HCC-2998 colon, in the assay with HT29 colon, in the assay on NCI-H226 lung, in the assay with NCI-H460 lung and in the assay with SNB-19 CNS was greater than 100 µM each time. Moreover, the TGI with SNB-75 CNS was greater than 100 µM; in the assay with U251 CNS, greater than 100 µM; in the assay with UACC-257 melanoma it was 89.3 µM.

For the compound `CC1=C2CCCC2=C/C(=N/Nc2ccc([N+](=O)[O-])cc2[N+](=O)[O-])CC1`, the TGI in the assay with A549 NSCLC, with HT29 colon, in the assay with NCI-H226 lung, in the assay on NCI-H460 lung, with SNB-19 CNS and in the assay with SNB-75 CNS was greater than 100 µM in each case. Also, the TGI in the assay with U251 CNS and in the assay with UACC-257 melanoma was greater than 100 µM each time.

Turning to `O=C(N/N=C1/C(=O)N(c2ccc(Cl)cc2Cl)C(=O)C(=O)C1c1nc2ccccc2o1)c1ccccc1O` (stereo not given), the TGI in the assay with A549 NSCLC, in the assay on HT29 colon, in the assay on NCI-H226 lung, in the assay with NCI-H460 lung, in the assay with SNB-19 CNS and in the assay on SNB-75 CNS was greater than 100 µM throughout.

For the compound `O=C(O)[C@H](NS(=O)(=O)c1ccc2ccccc2c1)c1ccccc1`, the TGI with HCC-2998 colon, in the assay on HT29 colon, with NCI-H460 lung, in the assay with SNB-19 CNS, with SNB-75 CNS and in the assay on U251 CNS was greater than 100 µM each time. In the assay with UACC-257 melanoma, this compound registered a TGI greater than 100 µM.

Consider `O=C1CC(C[C@H](O)C2CCCCC2O)CC(=O)N1Cc1ccccc1` (stereo not given in full), for which the TGI in the assay with A549 NSCLC, with HCC-2998 colon, in the assay on HT29 colon, with NCI-H226 lung, in the assay with NCI-H460 lung and in the assay with SNB-19 CNS was greater than 100 µM in each case. For the same compound, the TGI in the assay on SNB-75 CNS, in the assay on U251 CNS and in the assay on UACC-257 melanoma was greater than 100 µM throughout.

Turning to `COc1cccc(/C=N/[N-]C(=O)c2ccncc2)c1[O-].[Cu+2].[OH3+]`, the GI50 was 53.7 µM with A549 NSCLC; greater than 100 µM in the assay on HCC-2998 colon; 43.8 µM in the assay with HT29 colon; greater than 100 µM in the assay with NCI-H226 lung; 28.7 µM in the assay with NCI-H460 lung; greater than 100 µM with SNB-19 CNS. Also, the GI50 in the assay with SNB-75 CNS is 28.6 µM; in the assay with U251 CNS it was 20.5 µM; in the assay on UACC-257 melanoma, greater than 100 µM. Besides, the TGI in the assay on A549 NSCLC, in the assay on HCC-2998 colon, in the assay on HT29 colon, in the assay with NCI-H226 lung, with NCI-H460 lung and in the assay on SNB-19 CNS was greater than 100 µM throughout. The TGI in the assay with SNB-75 CNS, with U251 CNS and in the assay on UACC-257 melanoma was greater than 100 µM throughout.

Regarding `Cc1ccc(Cn2c(C)nc3c2C(=O)c2ccccc2C3=O)cc1`, the TGI with A549 NSCLC is 34.9 µM; in the assay with HCC-2998 colon it was greater than 100 µM; in the assay with HT29 colon, greater than 100 µM; in the assay with NCI-H226 lung it was 33.7 µM; in the assay on NCI-H460 lung, 3.13 µM; in the assay on SNB-19 CNS it was 49.8 µM. For the same compound, the results for the TGI with SNB-75 CNS, with U251 CNS and with UACC-257 melanoma were 36.3 µM, 22.8 µM and 60.8 µM, respectively.

On to `O=C(O)CSc1n[nH]c(-c2ccccc2)n1`, for which the TGI in the assay on A549 NSCLC, in the assay on HCC-2998 colon, in the assay on HT29 colon, in the assay on NCI-H226 lung, in the assay with NCI-H460 lung and with SNB-19 CNS was greater than 100 µM throughout. Besides, the TGI in the assay with SNB-75 CNS and in the assay with U251 CNS was greater than 100 µM in each case.

For `CCOc1ccc(N2C(=O)/C(=C/c3ccc(N(CCC#N)CCC#N)cc3)N=C2c2cc([N+](=O)[O-])ccc2Cl)cc1`, the TGI is greater than 100 µM with A549 NSCLC; greater than 100 µM with HCC-2998 colon; greater than 100 µM in the assay with NCI-H226 lung; 55.7 µM with NCI-H460 lung; greater than 100 µM in the assay on SNB-19 CNS; greater than 100 µM in the assay with SNB-75 CNS. The same compound gave a TGI in the assay with U251 CNS greater than 100 µM.

Consider `O=c1n(-c2ccccc2)c(=O)n2n1C1C=CC2C2C(C1)C2(Cl)Cl` (stereo not given), for which the TGI with A549 NSCLC, in the assay on HCC-2998 colon, in the assay with NCI-H226 lung, with NCI-H460 lung, in the assay on SNB-19 CNS and in the assay on SNB-75 CNS was greater than 100 µM throughout. The TGI with U251 CNS and in the assay on UACC-257 melanoma was greater than 100 µM in each case.

Regarding `CC(=O)O[C@H]1CCC2[C@@H]3CCC4=C(O)c5nocc5C[C@]4(C)C3CC[C@@]21C` (stereo not given in full), the TGI in the assay on A549 NSCLC, with HT29 colon, in the assay with NCI-H226 lung, in the assay on NCI-H460 lung, in the assay on SNB-19 CNS and in the assay on SNB-75 CNS was greater than 100 µM throughout. The TGI in the assay with U251 CNS and in the assay on UACC-257 melanoma was greater than 100 µM each time.

As for `CCC1C2C=CC(CC2)N1S(=O)(=O)c1ccc(C)cc1` (stereo not given), the TGI in the assay on A549 NSCLC was greater than 100 µM; with HT29 colon it was 42.1 µM; in the assay on NCI-H226 lung it was 33.9 µM; in the assay on NCI-H460 lung, 52.1 µM; with SNB-19 CNS, greater than 100 µM; with UACC-257 melanoma it was 93.5 µM.

The record behind these values is PubChem BioAssay (NCI).
